Assay results published in PubChem BioAssay AID2060490 (Molecular Pharmacology Branch, DTP, NCI, 2025).

Tested on: 885512-296-R-J2-PDC complex spheroid viability
Test: Anticancer human tumor 885512-296-R-J2-PDC patient-derived breast carcinoma cell line growth inhibition [GQUAD]
Settings: for IC50: curve of first compound; for viability, T/C: stronger effect = lower value
In short: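 Tumor cells were grown as complex spheroids with HUVEC endothelial cells and mesenchymal stem cells as stroma. G-quadruplex stabilizers were combined with targeted agents over half-log dilutions from near the clinical Cmax, or from 10 microM.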

[1] = second compound 0.0316 µM, first compound 0.0316 µM
[2] = second compound 0.0316 µM, first compound 0.1 µM
[3] = second compound 0.0316 µM, first compound 0.316 µM
[4] = second compound 0.0316 µM, first compound 1 µM
[5] = second compound 0.0316 µM, first compound 3.16 µM
[6] = second compound 0.0316 µM, first compound 10 µM
[7] = second compound 0.1 µM, first compound 0.0316 µM
[8] = second compound 0.1 µM, first compound 0.1 µM
[9] = second compound 0.1 µM, first compound 0.316 µM
[10] = second compound 0.1 µM, first compound 1 µM
[11] = second compound 0.1 µM, first compound 3.16 µM
[12] = second compound 0.1 µM, first compound 10 µM
[13] = second compound 0.316 µM, first compound 0.0316 µM
[14] = second compound 0.316 µM, first compound 0.1 µM
[15] = second compound 0.316 µM, first compound 0.316 µM
[16] = second compound 0.316 µM, first compound 1 µM
[17] = second compound 0.316 µM, first compound 3.16 µM
[18] = second compound 0.316 µM, first compound 10 µM
[19] = second compound 1 µM, first compound 0.0316 µM
[20] = second compound 1 µM, first compound 0.1 µM
[21] = second compound 1 µM, first compound 0.316 µM
[22] = second compound 1 µM, first compound 1 µM
[23] = second compound 1 µM, first compound 3.16 µM
[24] = second compound 1 µM, first compound 10 µM
[25] = second compound 3.16 µM, first compound 0.0316 µM
[26] = second compound 3.16 µM, first compound 0.1 µM
[27] = second compound 3.16 µM, first compound 0.316 µM
[28] = second compound 3.16 µM, first compound 1 µM
[29] = second compound 3.16 µM, first compound 3.16 µM
[30] = second compound 3.16 µM, first compound 10 µM
[31] = second compound 10 µM, first compound 0.0316 µM
[32] = second compound 10 µM, first compound 0.1 µM
[33] = second compound 10 µM, first compound 0.316 µM
[34] = second compound 10 µM, first compound 1 µM
[35] = second compound 10 µM, first compound 3.16 µM
[36] = second compound 10 µM, first compound 10 µM
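Also: spheroids exposed to the compounds for one week.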
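For viability, T/C in this document: percent of tumor spheroid viability relative to DMSO vehicle control wells.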

With `CC1COCCN1c1cc(-c2ccnn2C)c2ccnc(-c3ccn[nH]3)c2n1` (stereo unspecified) + Cc1cnc(CNC(=O)c2c(=O)c3ccc(N4CCCN(C)CC4)nc3n3c2sc2ccccc23)cn1 the IC50 (second compound 0.0316 µM) was < 31.6 nM, the IC50 (second compound 0.1 µM) was < 31.6 nM and the IC50 (second compound 0.316 µM) was < 31.6 nM. For the same compound, the IC50 (second compound 1 µM) was < 31.6 nM, the IC50 (second compound 3.16 µM) was < 31.6 nM and the IC50 (second compound 10 µM) was < 31.6 nM. The viability, T/C [1] was 7.27%, the viability, T/C [2] was 3% and the viability, T/C [3] was 3.14%. The viability, T/C [4] was 2.98%, the viability, T/C [5] was 4.32% and the viability, T/C [6] was 6.71%. For the same compound, the viability, T/C [7] was 7.98%, the viability, T/C [8] was 3.24% and the viability, T/C [9] was 2.68%. It also gave a viability, T/C [10] of 3.6%, a viability, T/C [11] of 4.73% and a viability, T/C [12] of 6.8%. For the same compound, the viability, T/C [13] was 6.5%, the viability, T/C [14] was 4.72% and the viability, T/C [15] was 4.23%. It also gave a viability, T/C [16] of 4.64%, a viability, T/C [17] of 5.38% and a viability, T/C [18] of 6.91%. It also gave a viability, T/C [19] of 7.32%, a viability, T/C [20] of 5.67% and a viability, T/C [21] of 4.04%. For the same compound, the viability, T/C [22] was 5.5%, the viability, T/C [23] was 6.49% and the viability, T/C [24] was 7.5%. It also gave a viability, T/C [25] of 0.41%, a viability, T/C [26] of 0.9% and a viability, T/C [27] of 0.43%. It also gave a viability, T/C [28] of 5.3%, a viability, T/C [29] of 6.82% and a viability, T/C [30] of 6.13%. For the same compound, the viability, T/C [31] was 0.03%, the viability, T/C [32] was 0.1% and the viability, T/C [33] was 0.12%. The viability, T/C [34] was 0.06%, the viability, T/C [35] was 0.1% and the viability, T/C [36] was 0.11%.

`COc1ccc([C@@H](O)c2cc(-c3ncnc4cc(N5CCOCC5)ccc34)c(F)cc2Cl)nn1` + Cc1cnc(CNC(=O)c2c(=O)c3ccc(N4CCCN(C)CC4)nc3n3c2sc2ccccc23)cn1 was tested, and the IC50 (second compound 0.0316 µM) was 274 nM, the IC50 (second compound 0.1 µM) was 125 nM and the IC50 (second compound 0.316 µM) was < 31.6 nM. For the same compound, the IC50 (second compound 1 µM) was < 31.6 nM, the IC50 (second compound 3.16 µM) was < 31.6 nM and the IC50 (second compound 10 µM) was < 31.6 nM. The viability, T/C [1] was 93.6%, the viability, T/C [2] was 73.1% and the viability, T/C [3] was 50%. It also gave a viability, T/C [4] of 25.6%, a viability, T/C [5] of 32% and a viability, T/C [6] of 29.4%. It also gave a viability, T/C [7] of 67.1%, a viability, T/C [8] of 54.7% and a viability, T/C [9] of 28.2%. For the same compound, the viability, T/C [10] was 30%, the viability, T/C [11] was 33.1% and the viability, T/C [12] was 29.2%. For the same compound, the viability, T/C [13] was 26.1%, the viability, T/C [14] was 21.2% and the viability, T/C [15] was 24.2%. The viability, T/C [16] was 24.6%, the viability, T/C [17] was 24.8% and the viability, T/C [18] was 23.8%. The viability, T/C [19] was 21.8%, the viability, T/C [20] was 26.6% and the viability, T/C [21] was 21.9%. It also gave a viability, T/C [22] of 24.3%, a viability, T/C [23] of 29.9% and a viability, T/C [24] of 18.9%. For the same compound, the viability, T/C [25] was 24.8%, the viability, T/C [26] was 25.4% and the viability, T/C [27] was 25.1%. The viability, T/C [28] was 22.7%, the viability, T/C [29] was 23.2% and the viability, T/C [30] was 17.2%. It also gave a viability, T/C [31] of 0.11%, a viability, T/C [32] of 0.2% and a viability, T/C [33] of 0.17%. For the same compound, the viability, T/C [34] was 0.15%, the viability, T/C [35] was 0.18% and the viability, T/C [36] was 0.19%.

Work on `O=C(c1cc(Cc2n[nH]c(=O)c3ccccc23)ccc1F)N1CCN(C(=O)C2CC2)CC1` + Cc1[nH]c2ccc(F)cc2c1-c1nc2c3cccnc3c3ncccc3c2[nH]1 yielded an IC50 (second compound 0.0316 µM) of 8270 nM, an IC50 (second compound 0.1 µM) of 9460 nM and an IC50 (second compound 0.316 µM) of 8460 nM. The IC50 (second compound 1 µM) was 5090 nM, the IC50 (second compound 3.16 µM) was < 31.6 nM and the IC50 (second compound 10 µM) was < 31.6 nM. For the same compound, the viability, T/C [1] was 105%, the viability, T/C [2] was 96.3% and the viability, T/C [3] was 124%. It also gave a viability, T/C [4] of 139%, a viability, T/C [5] of 134% and a viability, T/C [6] of 36%. For the same compound, the viability, T/C [7] was 98%, the viability, T/C [8] was 103% and the viability, T/C [9] was 119%. For the same compound, the viability, T/C [10] was 137%, the viability, T/C [11] was 146% and the viability, T/C [12] was 46.4%. For the same compound, the viability, T/C [13] was 94.3%, the viability, T/C [14] was 99.2% and the viability, T/C [15] was 112%. It also gave a viability, T/C [16] of 150%, a viability, T/C [17] of 131% and a viability, T/C [18] of 38.7%. It also gave a viability, T/C [19] of 75.2%, a viability, T/C [20] of 74.4% and a viability, T/C [21] of 82.4%. It also gave a viability, T/C [22] of 101%, a viability, T/C [23] of 70.5% and a viability, T/C [24] of 21%. The viability, T/C [25] was 13.8%, the viability, T/C [26] was 13.9% and the viability, T/C [27] was 16.7%. The viability, T/C [28] was 14.9%, the viability, T/C [29] was 6.15% and the viability, T/C [30] was 2.65%. It also gave a viability, T/C [31] of 2.34%, a viability, T/C [32] of 2.08% and a viability, T/C [33] of 3.14%. It also gave a viability, T/C [34] of 1.59%, a viability, T/C [35] of 1.27% and a viability, T/C [36] of 1.27%.
